Source: patent US20120101093A1, “SUBSTITUTED IMIDAZO[1,2-A]PYRIDINE DERIVATIVES, PHARMACEUTICAL COMPOSITIONS, AND METHODS OF USE AS BETA-SECRETASE INHIBITORS” (HIGH POINT PHARMACEUTICALS, LLC, priority 2009, published 2012)

These compounds were tested against T1, BACE-1 enzyme (Homo sapiens, UniProt P56817) (assay: BACE Fluorescence Resonance Energy Transfer (FRET) Assay). Conditions: pH 4-4.5, 30 min pre-incubation, about 1.5 hours reaction.
T1 construct: purchased R & D Systems 931AS
T1 sequence (P56817 46-457 limits assumed): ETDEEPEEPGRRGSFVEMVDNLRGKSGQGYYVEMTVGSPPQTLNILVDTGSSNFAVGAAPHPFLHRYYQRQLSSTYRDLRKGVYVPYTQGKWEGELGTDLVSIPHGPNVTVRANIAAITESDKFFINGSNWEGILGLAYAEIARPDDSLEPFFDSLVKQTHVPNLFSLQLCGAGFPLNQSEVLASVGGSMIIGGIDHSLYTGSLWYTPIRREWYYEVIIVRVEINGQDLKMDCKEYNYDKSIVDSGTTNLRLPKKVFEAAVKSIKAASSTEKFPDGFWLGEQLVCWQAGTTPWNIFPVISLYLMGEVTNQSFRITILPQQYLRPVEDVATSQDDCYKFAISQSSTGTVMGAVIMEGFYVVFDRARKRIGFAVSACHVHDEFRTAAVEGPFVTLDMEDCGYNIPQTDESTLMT
Type: biochemical
Method: BACE Fluorescence Resonance Energy Transfer (FRET) Assay
In the following assay, the proteolytic activity of BACE is measured by observing cleavage of a fluorescent group from a peptide substrate containing a rhodamine fluorescent donor and a quenching acceptor.
The inhibitory activity of compounds of Formula (I) may be compared to a statine derived control inhibitor STA200 (MP Biomedical Cat. #STA-200). The cleavage reaction occurs when a BACE-1 substrate (Invitrogen, Cat. #P2986) was added to a reaction mixture containing BACE-1 enzyme (R & D Systems, Cat. #931AS) and allowed to proceed for about 1.5 hours. Fluorescence, used as a marker of BACE activity, is monitored using 540 nm excitation and 585 nm emission wavelengths (Envision, Perkin Elmer).
A typical assay reaction contains BACE-1 enzyme—in assay buffer (50 mM sodium acetate, pH 4-4.5, 0.01% CHAPS (3-[(3-Cholamidopropyl)dimethylammonio]-1-propanesulfonate), 0.0125% TritonX-100, 0.006% EDTA) which is pre-incubated for 30 minutes with test compound in 7.5% DMSO. The reaction is initiated with the addition of BACE-1 substrate in assay buffer and allowed to proceed for about 1.5 hours at room temperature. Assays are conducted in black 384-well microtiter plates and scanned at room temperature using 540 nm excitation and 585 nm emission wavelengths.
In some instances, the percent inhibition at a given concentration is reported instead of the IC50.
`COc1cccc2nc(C(=O)Nc3nc4cc(-c5cccc(C(F)(F)F)c5)ccc4[nH]3)cn12` [Example 4, 5-Methoxy-imidazo[1,2-a]pyridine-2-carboxylic acid[5-(3-trifluoromethyl-phenyl)-1H-benzoimidazol-2-yl]-amide] was tested, and the IC50 was 0.51 µM. `Cc1c(N2CC[C@@H](O)C2)ccc2nc(C(=O)Nc3nc4cc(-c5cc(F)cc(Cl)c5)ccc4[nH]3)cn12` [Example 5, 6-((R)-3-Hydroxy-pyrrolidin-1-yl)-5-methyl-imidazo[1,2-a]pyridine-2-carboxylic acid [5-(3-chloro-5-fluoro-phenyl)-1H-benzoimidazol-2-yl]-amide] showed an IC50 of 0.49 µM. For `Cc1c(C#CC(C)(C)O)ccc2nc(C(=O)Nc3nc4cc(-c5cccc(C(F)(F)F)c5)ccc4[nH]3)cn12` [Example 6, 6-(3-Hydroxy-3-methyl-but-1-ynyl)-5-methyl-imidazo[1,2-a]pyridine-2-carboxylic acid [5-(3-trifluoromethyl-phenyl)-1H-benzoimidazol-2-yl]-amide], the IC50 was 0.25 µM. `Cc1c(OCCO)ccc2nc(C(=O)Nc3nc4cc(-c5cccc(C(F)(F)F)c5)ccc4[nH]3)cn12` [Example 7, 6-(2-Hydroxy-ethoxy)-5-methyl-imidazo[1,2-a]pyridine-2-carboxylic acid [5-(3-trifluoromethyl-phenyl)-1H-benzoimidazol-2-yl]-amide] was tested, and the IC50 was 0.1 µM. Work on `O=C(Nc1nc2cc(-c3cc(F)cc(Cl)c3)ccc2[nH]1)c1cn2c(N3CC[C@@H](O)C3)cccc2n1` [Example 8, 5-((R)-3-Hydroxy-pyrrolidin-1-yl)-imidazo[1,2-a]pyridine-2-carboxylic acid [5-(3-chloro-5-fluoro-phenyl)-1H-benzoimidazol-2-yl]-amide] yielded an IC50 of 0.2 µM. With `O=C(Nc1nc2cc(-c3cccc(Cl)c3)ccc2[nH]1)c1cn2cc(OCCO)ccc2n1` [Example 9, 6-(2-Hydroxy-ethoxy)-imidazo[1,2-a]pyridine-2-carboxylic acid [5-(3-chloro-phenyl)-1H-benzoimidazol-2-yl]-amide] the IC50 was 0.3 µM. `O=C(Nc1nc2cc(OCc3ccccc3)ccc2[nH]1)c1cn2cc(Cl)ccc2n1` [Example 13, 6-Chloro-imidazo[1,2-a]pyridine-2-carboxylic acid (5-benzyloxy-1H-benzoimidazol-2-yl)-amide] was tested, and the IC50 was 0.08 µM. `Cc1cccn2cc(C(=O)Nc3nc4cc(OCc5ccccc5)ccc4[nH]3)nc12` [Example 14, 8-Methyl-imidazo[1,2-a]pyridine-2-carboxylic acid (5-benzyloxy-1H-benzoimidazol-2-yl)-amide] showed an IC50 of 0.12 µM. In the case of `O=C(Nc1nc2cc(OCc3ccc(Cl)cc3Cl)ccc2[nH]1)c1cn2cc(Cl)ccc2n1` [Example 15, 6-Chloro-imidazo[1,2-a]pyridine-2-carboxylic acid [5-(2,4-dichloro-benzyloxy)-1H-benzoimidazol-2-yl]-amide], the IC50 is reported as 0.23 µM. Compound `O=C(Nc1nc2cc(OCc3cc(F)cc(F)c3)ccc2[nH]1)c1cn2cc(Cl)ccc2n1` [Example 16, 6-Chloro-imidazo[1,2-a]pyridine-2-carboxylic acid [5-(3,5-difluoro-benzyloxy)-1H-benzoimidazol-2-yl]-amide] has an IC50 of 0.17 µM. `O=C(Nc1nc2cc(OCc3ccc(C(F)(F)F)cc3)ccc2[nH]1)c1cn2ccccc2n1` [Example 17, Imidazo[1,2-a]pyridine-2-carboxylic acid [5-(4-trifluoromethyl-benzyloxy)-1H-benzoimidazol-2-yl]-amide] gave an IC50 of 0.12 µM. In the case of `O=C(Nc1nc2cc(OCc3cc(F)cc(Cl)c3)ccc2[nH]1)c1cn2cc(Cl)ccc2n1` [Example 19, 6-Chloro-imidazo[1,2-a]pyridine-2-carboxylic acid [5-(3-chloro-5-fluoro-benzyloxy)-1H-benzoimidazol-2-yl]-amide], the IC50 is reported as 0.23 µM. In the case of `O=C(Nc1nc2cc(OCc3ccc(Cl)c(Cl)c3)ccc2[nH]1)c1cn2cc(Cl)ccc2n1` [Example 20, 6-Chloro-imidazo[1,2-a]pyridine-2-carboxylic acid [5-(3,4-dichloro-benzyloxy)-1H-benzoimidazol-2-yl]-amide], the IC50 is reported as 0.25 µM.
